# Patent US20140147527A1, “COMPOSITIONS AND METHODS FOR TREATING EMOTIONAL-PSYCHOLOGICAL STRESS” (TSUKUBA UNIVERSITY, priority 2012, published 2014)
# System: SH-SY5Y cells
# Assay: Cell viability assay (MTT) in SH-SY5Y cells
# Assay type: cell-based, human
# Details: H2O2 0, 50, 100, 150, 200 or 250 μM, 24 hours
# Protocol: To determine the concentration of C. schoenanthus ethanol extracts which can be used to investigate their anti-stress effect, SH-SY5Y cells were cultured with several concentrations (1/100, 1/1000, or 1/10000 v/v dilution of C. schoenanthus ethanol extract in culturing medium) for 72 hours.
# SH-SY5Y cells were treated with different concentrations of C. schoenanthus extract (at a 1/500, 1/750, 1/1000, 1/1500, or 1/2000 v/v dilution in medium) for 72 hours and cell viability was determined by MTT assay.
# To evaluate whether H2O2 influences neuronal cytotoxicity, SH-SY5Y cells were treated with various concentrations of H2O2 (0, 50, 100, 150, 200, or 250 μM) for 24 hours.
# A cell survival analysis was performed using 3-(4,5-Dimethylthiazol-2-yl)-2,5-diphenyltetrazolium bromide (MTT), which was dissolved in PBS to a final concentration of 5 mg/ml. […] Then, 100 μl of 10% of sodium dodecyl sulfate (SDS) was added and after overnight incubation, the absorbance was determined at 570 nm. The control wells which contained cultured cells with medium only were considered as 100% cell viability.
structure (smiles),measurement,value
OO [H2O2],cytotoxicity in SH-SY5Y cells,dose-dependent cytotoxicity
